Measurements from patent EP4603105A1, “PHARMACEUTICAL COMPOSITION CONTAINING CYCLIC COMPOUND HAVING SELECTIVE KRAS INHIBITORY EFFECT AGAINST HRAS AND NRAS” (CHUGAI SEIYAKU KABUSHIKI KAISHA, priority 2022, dated 2024).
Like-named read-outs stand apart in the source and are kept apart here.

Experiments:
[1] = system: human lung cancer strain NCI-H441; test: NCI-H441 cell proliferation inhibitory activity (CellTiter-Glo, 4 days); assay type: cell-based; conditions: read-out: NCl-H441 IC50
Method: A test compound was dispensed into a U-bottom 384-well plate as 40 nL serially diluted dimethyl sulfoxide solutions using a liquid handler Echo (LABCYTE). […] This cell suspension was dispensed in an amount of 40 µL per well into a plate containing the test compound, and cultured at 37°C in a 5% carbon dioxide gas incubator. Four days later, 20 µL of CellTiter-Glo (registered trademark) (Promega) was added to each well and […] was measured. […]

[2] = biological target: GDP-bound NRAS wild-type protein (Homo sapiens, UniProt P01111); test: Binding to NRAS by surface plasmon resonance (SPR), KD and KD ratio to KRAS
How it was run: (§1)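 Each cycle, GDP-bound biotin-Avi RAS was captured (~100–300 RU), compound concentrations were injected low to high for 75 s each at 100 µL/min, then the chip was regenerated. Buffer: HBS pH 7.4, 10 mM MgCl2, 10 µM GDP, 1 mM DTT, 4% DMSO; 30°C. KD from a 1:1 binding model.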

HRAS wild-type protein = HRAS wild-type protein (Homo sapiens, UniProt P01112); test: Binding to HRAS by surface plasmon resonance (SPR), KD and KD ratio to KRAS
How it was run: as §1

[3] = biological target: GDP-bound KRAS wild-type protein (Homo sapiens, UniProt P01116); test: Binding to KRAS by surface plasmon resonance (SPR), dissociation constant KD; conditions: 1:1 binding model
How it was run: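 Read-out is KD from 1:1 fitting of single-cycle kinetics sensorgrams, blank-cycle and reference-surface corrected. Proteins were GDP-loaded, biotinylated Avi-fusions freshly captured each cycle at roughly 100–300 RU. Runs were at 30°C in HBS pH 7.4 with MgCl2, GDP and 4% DMSO.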

[4] = system: human lung cancer strain NCI-H441; assay type: cell-based
How it was run: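 Signal came from […] measured per well once the reagent was added. Beforehand, cells were cultured at 37°C and 5% carbon dioxide on a compound series serially diluted in dimethyl sulfoxide.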

[5] = 50% proliferation inhibitory concentration, four days
[6] = ratio of KD with respect to GDP-bound NRAS wild-type protein to KD with respect to KRAS
[7] = ratio of KD with respect to HRAS wild-type protein to KD with respect to KRAS

GDP-bound NRAS wild-type protein, sequence (P01111 whole entry): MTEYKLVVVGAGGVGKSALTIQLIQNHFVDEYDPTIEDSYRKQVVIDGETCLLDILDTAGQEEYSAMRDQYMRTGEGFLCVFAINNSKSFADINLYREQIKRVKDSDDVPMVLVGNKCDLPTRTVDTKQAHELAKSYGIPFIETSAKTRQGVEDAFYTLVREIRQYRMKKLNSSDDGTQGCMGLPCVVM
HRAS wild-type protein, sequence (P01112 whole entry): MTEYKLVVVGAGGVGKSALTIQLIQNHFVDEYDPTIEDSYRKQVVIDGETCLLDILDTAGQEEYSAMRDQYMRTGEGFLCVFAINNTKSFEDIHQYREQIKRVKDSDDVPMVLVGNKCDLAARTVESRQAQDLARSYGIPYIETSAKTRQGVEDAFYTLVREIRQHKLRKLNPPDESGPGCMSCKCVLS
GDP-bound KRAS wild-type protein, sequence (P01116 1-188 isoform P01116-2): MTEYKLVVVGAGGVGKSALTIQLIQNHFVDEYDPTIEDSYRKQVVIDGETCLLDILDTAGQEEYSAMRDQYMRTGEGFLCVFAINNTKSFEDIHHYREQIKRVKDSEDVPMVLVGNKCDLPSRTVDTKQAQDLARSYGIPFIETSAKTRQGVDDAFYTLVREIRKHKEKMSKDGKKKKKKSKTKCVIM

Question: How did the IC50 [1, 5] turn out when CC[C@H](C)[C@@H]1NC(=O)[C@H](CC)N(C)C(=O)C[C@@H](C(=O)N(C)C)N(C)C(=O)[C@H](C2CCCC2)N(C)C(=O)C2(CCC2)NC(=O)[C@@H]2C[C@@H](C(F)(F)F)CN2C(=O)[C@H](CCc2cc(F)c(C(F)(F)F)c(F)c2)NC(=O)CN(C)C(=O)[C@H](CC2CCC(F)(F)CC2)N2CC/C=C\C[C@@H](C2=O)N(C)C(=O)CN(C)C1=O [PP1451] was run?
Answer: 0.0611 µM

Question: With CCCC[C@H]1C(=O)N[C@@H]([C@@H](C)CC)C(=O)N(C)CC(=O)N(C)[C@H]2C/C=C\CCN(C2=O)[C@@H](Cc2ccc(C(F)(F)F)cc2)C(=O)N(C)CC(=O)N[C@@H](CCc2cc(F)c(C(F)(F)F)c(F)c2)C(=O)N2C[C@H](OCC)C[C@H]2C(=O)NC2(CCC2)C(=O)N(C)[C@@H](C2CCCC2)C(=O)N(C)[C@H](C(=O)N2CCCC2)CC(=O)N1C [PP1396] as the molecule, how does the IC50 [1, 5] read?
Answer: 0.0194 µM

Question: CCO[C@@H]1C[C@H]2C(=O)NC3(CC(C)(C)C3)C(=O)N(C)[C@@H](C3CCCC3)C(=O)N(C)[C@H](C(=O)N(C)CC)CC(=O)N(C)[C@@H]([C@H](C)OC)C(=O)N[C@@H]([C@@H](C)CC)C(=O)N(C)CC(=O)N(C)[C@H]3C/C=C\CCN(C3=O)[C@@H](Cc3ccc(C(F)(F)F)cc3)C(=O)N(C)CC(=O)N[C@@H](CCc3ccc(C(F)(F)F)c(Cl)c3)C(=O)N2C1 [PP3218] was tested. Which IC50 ([1]; NCI-H441 cells, 4 days) did it give?
Answer: 0.0151 µM

Question: What does the source list for CCO[C@@H]1C[C@H]2C(=O)NC3(CCC3)C(=O)N(C)[C@@H](C3CCCC3)C(=O)N(C)[C@@H](C(=O)N(C)C)CC(=O)N(C)[C@@H](CC3CCCC3)C(=O)N[C@@H]([C@@H](C)CC)C(=O)N(C)CC(=O)N(C)[C@H]3C/C=C\CCN(C3=O)[C@@H](Cc3ccc(C(F)(F)F)cc3)C(=O)N(C)CC(=O)N[C@@H](CCc3cc(F)c(C(F)(F)F)c(F)c3)C(=O)N2C1 [PP1235]?
Answer: NRAS /KRAS [2, 6]: B (a compound having 3 or more and less than 10 is denoted as B); HRAS /KRAS (HRAS wild-type protein; [7]): C (A compound having a KD ratio of 0.1 or more and less than 3 is denoted as C); IC50 [1, 5]: 0.386 µM

Question: For CCO[C@@H]1C[C@H]2C(=O)NC3(CCC3)C(=O)N(C)[C@@H](C3CCCC3)C(=O)N(C)[C@H](C(=O)N(C)C)CC(=O)N(C)[C@@H](CC3CCCC3)C(=O)N[C@@H]([C@@H](C)CC)C(=O)N(C)CC(=O)N(C)[C@H]3C/C=C\CCN(C3=O)[C@@H](CC3CCCCC3)C(=O)N(C)CC(=O)N[C@@H](CCc3cc(F)c(C(F)(F)F)c(F)c3)C(=O)N2C1 [PP1472], which IC50 [1, 5] is on record?
Answer: 0.0371 µM

Question: Which IC50 ([1]; NCI-H441 cells, 4 days) does the source give for CCO[C@@H]1C[C@H]2C(=O)NC3(CC(C)(C)C3)C(=O)N(C)[C@@H](C3CCCC3)C(=O)N(C)[C@H](C(=O)N(C)CC)CC(=O)N(C)[C@@H]([C@H](C)OC)C(=O)N[C@@H]([C@@H](C)CC)C(=O)N(C)CC(=O)N(C)[C@H]3C/C=C\CCN(C3=O)[C@@H](Cc3ccc(C(F)(F)F)cc3)C(=O)N(C)CC(=O)N[C@@H](CCc3ccc(C(F)(F)F)c(OC)c3)C(=O)N2C1 [PP3216] here?
Answer: 0.0221 µM

Question: CC[C@H](C)[C@@H]1NC(=O)[C@H](CC)N(C)C(=O)C[C@@H](C(=O)N2CCOCC2)N(C)C(=O)[C@H](C2CCCC2)N(C)C(=O)C2(CCCC2)NC(=O)[C@@H]2CCCN2C(=O)[C@H](CCc2cc(F)c(C(F)(F)F)c(F)c2)NC(=O)CN(C)C(=O)[C@H](Cc2ccc(C(F)(F)F)cc2)N2CC(C)[C@@H](C)C[C@@H](C2=O)N(C)C(=O)CN(C)C1=O (some centres unmarked) [PP1350] was tested. Which “NRAS /KRAS” value [2, 6] did it give?
Answer: B (a compound having 3 or more and less than 10 is denoted as B)

Question: And the “HRAS /KRAS” value (HRAS wild-type protein; [7])?
Answer: B (a compound having 3 or more and less than 10 is denoted as B)

Question: And the IC50 [1, 5]?
Answer: 0.0201 µM

Question: CCO[C@@H]1C[C@H]2C(=O)NC3(CCC3)C(=O)N(C)[C@@H](C3CCCC3)C(=O)N(C)[C@H](C(=O)N(C)C)CC(=O)N(C)[C@@H](CC)C(=O)N[C@@H]([C@@H](C)CC)C(=O)N(C)CC(=O)N(C)[C@H]3C/C=C\CCN(C3=O)[C@@H](CC3CCCCC3)C(=O)N(C)CC(=O)N[C@@H](CCc3cc(F)c(C(F)(F)F)c(F)c3)C(=O)N2C1 [PP1466] was tested. Which IC50 [1, 5] did it give?
Answer: 0.0332 µM

Question: With CCC[C@H]1C(=O)N[C@@H]([C@@H](C)CC)C(=O)N(C)CC(=O)N(C)[C@H]2C/C=C\CCN(C2=O)[C@@H](Cc2ccc(C(F)(F)F)cc2)C(=O)N(C)CC(=O)N[C@@H](CCc2cc(F)c(C(F)(F)F)c(F)c2)C(=O)N2C[C@H](OCC)C[C@H]2C(=O)NC2(CCC2)C(=O)N(C)[C@@H](C2CCCC2)C(=O)N(C)[C@H](C(=O)N2CCCC2)CC(=O)N1C [PP1299] as the molecule, how does the IC50 [1, 5] read?
Answer: 0.011 µM

Question: How did the IC50 ([1]; NCI-H441 cells, 4 days) turn out when CCO[C@@H]1C[C@H]2C(=O)NC3(CC(C)(C)C3)C(=O)N(C)[C@@H](C3CCCC3)C(=O)N(C)[C@H](C(=O)N(C)CC)CC(=O)N(C)[C@@H]([C@H](C)OC)C(=O)N[C@@H]([C@@H](C)CC)C(=O)N(C)CC(=O)N(C)[C@H]3C/C=C\CCN(C3=O)[C@@H](Cc3ccc(C)cc3)C(=O)N(C)CC(=O)N[C@@H](CCc3ccc(C(F)(F)F)c(OC)c3)C(=O)N2C1 [PP3225] was run?
Answer: 0.0121 µM

Question: How did the IC50 [1, 5] turn out when CCO[C@@H]1C[C@H]2C(=O)NC3(COC3)C(=O)N(C)[C@@H](C3CCCC3)C(=O)N(C)[C@H](C(=O)N(C)C)CC(=O)N(C)[C@@H](CC)C(=O)N[C@@H]([C@@H](C)CC)C(=O)N(C)CC(=O)N(C)[C@H]3C/C=C\CCN(C3=O)[C@@H](Cc3ccc(C(F)(F)F)cc3)C(=O)N(C)CC(=O)N[C@@H](CCc3cc(F)c(C(F)(F)F)c(F)c3)C(=O)N2C1 [PP1278] was run?
Answer: 0.0457 µM

Question: With CCO[C@@H]1C[C@H]2C(=O)NC3(CCC3)C(=O)N(C)[C@@H](C3CCCC3)C(=O)N(C)[C@H](C(=O)N3CCOCC3)CC(=O)N(C)[C@@H](CC)C(=O)N[C@@H]([C@@H](C)CC)C(=O)N(C)CC(=O)N(C)[C@H]3C/C=C\CCN(C3=O)[C@@H](Cc3ccc(C(F)(F)F)cc3)C(=O)N(C)CC(=O)N[C@@H](CCc3ccc(C(F)(F)F)c(Cl)c3)C(=O)N2C1 [PP1281] as the molecule, how does the IC50 [1, 5] read?
Answer: 0.0102 µM

Question: With CCC[C@H]1C(=O)N[C@@H]([C@@H](C)CC)C(=O)N(C)CC(=O)N(C)[C@H]2C/C=C\CCN(C2=O)[C@@H](CC2CCC(F)(F)CC2)C(=O)N(C)CC(=O)N[C@@H](CCc2cc(F)c(C(F)(F)F)c(F)c2)C(=O)N2C[C@H](OCC)C[C@H]2C(=O)NC2(CCC2)C(=O)N(C)[C@@H](C2CCCC2)C(=O)N(C)[C@H](C(=O)N(C)C)CC(=O)N1C [PP1450] as the molecule, how does the IC50 [1, 5] read?
Answer: 0.0501 µM

Question: How did the IC50 [1, 5] turn out when CCO[C@@H]1C[C@H]2C(=O)NC3(CCC3)C(=O)N(C)[C@@H](C3CCCC3)C(=O)N(C)[C@H](C(=O)N3CCCC3)CC(=O)N(C)[C@@H](CC3CCC3)C(=O)N[C@@H]([C@@H](C)CC)C(=O)N(C)CC(=O)N(C)[C@H]3C/C=C\CCN(C3=O)[C@@H](Cc3ccc(C(F)(F)F)cc3)C(=O)N(C)CC(=O)N[C@@H](CCc3cc(F)c(C(F)(F)F)c(F)c3)C(=O)N2C1 [PP1423] was run?
Answer: 0.0044 µM

Question: CCC[C@H]1C(=O)N[C@@H]([C@@H](C)CC)C(=O)N(C)CC(=O)N(C)[C@H]2C/C=C\CCN(C2=O)[C@@H](Cc2ccc(C)cc2)C(=O)N(C)CC(=O)N[C@@H](CCc2ccc(C(F)(F)F)c(OC)c2)C(=O)N2C[C@H](C)C[C@H]2C(=O)NC2(CCC2)C(=O)N(C)[C@@H](C2CCCC2)C(=O)N(C)[C@H](C(=O)N(C)C)CC(=O)N1C [PP1859] was tested. Which Kd ([3]; Single Cycle Kinetics) did it give?
Answer: 0.00014 µM

Question: What about the “NRAS /KRAS” value ([2]; ratio of KD value for GDP-bound NRAS wild-type protein to KD value for KRAS (SPR)) of the same molecule?
Answer: A (a compound having 10 or more and less than 20 is denoted as A)

Question: What about the “HRAS /KRAS” value (HRAS wild-type protein; ratio of KD value for HRAS wild-type protein to KD value for KRAS (SPR)) of the same molecule?
Answer: A (a compound having 10 or more and less than 20 is denoted as A)

Question: What about the IC50 [4] of the same molecule?
Answer: 0.0288 µM

Question: For CCO[C@@H]1C[C@H]2C(=O)NC3(CC(C)(C)C3)C(=O)N(C)[C@@H](C3CCCC3)C(=O)N(C)[C@H](C(=O)N(C)CC)CC(=O)N(C)[C@@H](CC(C)C)C(=O)N[C@@H]([C@@H](C)CC)C(=O)N(C)CC(=O)N(C)[C@H]3C/C=C\CCN(C3=O)[C@@H](Cc3ccc(C(F)F)cc3)C(=O)N(C)CC(=O)N[C@@H](CCc3ccc(C(F)(F)F)c(CC)c3)C(=O)N2C1 [PP3141], which Kd [3] is on record?
Answer: 0.00025 µM

Question: What about the “NRAS /KRAS” value ([2]; ratio of KD for GDP-bound NRAS wild-type protein to KD for KRAS) of the same molecule?
Answer: A (a compound having 10 or more and less than 20 is denoted as A)

Question: What about the “HRAS /KRAS” value (HRAS wild-type protein; ratio of KD for HRAS wild-type protein to KD for KRAS) of the same molecule?
Answer: A (a compound having 10 or more and less than 20 is denoted as A)

Question: What about the IC50 [4] of the same molecule?
Answer: 0.0098 µM
